From paper PMC12136037, “Type II kinase inhibitors that target Parkinson’s disease–associated LRRK2” (Science Advances, 2025)
Where two headings read alike, the source gives them in different places.

Assays:
Assay in all cases: DSF 100 kinase selectivity screen;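 further: compound tested at 20 µM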
Assay type in all cases: binding
[1] = target: T1, ~100 representative kinases (Homo sapiens, UniProt P53779); details: protein MAPK10; average of three replicates
T1 construct: Recombinant protein kinase domains with a concentration of 2 μM
Protocol: (§1) Recombinant protein kinase domains with a concentration of 2 μM were mixed with a 20 μM compound solution in dimethyl sulfoxide (DMSO), 20 mM Hepes (pH 7.5), and 500 mM NaCl. SYPRO Orange (5000×, Invitrogen) was added as a fluorescence probe (1μl/ml). Subsequently, temperature-dependent protein unfolding profiles were measured using the QuantStudio 5 realtime PCR machine (Thermo Fisher Scientific, Waltham, MA, USA). […] The temperature was raised with a step rate of 3°C/min. […] Differences in melting temperature are given as ΔTm values in degrees Celsius. […]

[2] = target: T2, ~100 representative kinases (Homo sapiens, UniProt Q99640); details: protein PKMYT1; average of three replicates
T2 construct: Recombinant protein kinase domains with a concentration of 2 μM
T2 sequence (Q99640 1-499): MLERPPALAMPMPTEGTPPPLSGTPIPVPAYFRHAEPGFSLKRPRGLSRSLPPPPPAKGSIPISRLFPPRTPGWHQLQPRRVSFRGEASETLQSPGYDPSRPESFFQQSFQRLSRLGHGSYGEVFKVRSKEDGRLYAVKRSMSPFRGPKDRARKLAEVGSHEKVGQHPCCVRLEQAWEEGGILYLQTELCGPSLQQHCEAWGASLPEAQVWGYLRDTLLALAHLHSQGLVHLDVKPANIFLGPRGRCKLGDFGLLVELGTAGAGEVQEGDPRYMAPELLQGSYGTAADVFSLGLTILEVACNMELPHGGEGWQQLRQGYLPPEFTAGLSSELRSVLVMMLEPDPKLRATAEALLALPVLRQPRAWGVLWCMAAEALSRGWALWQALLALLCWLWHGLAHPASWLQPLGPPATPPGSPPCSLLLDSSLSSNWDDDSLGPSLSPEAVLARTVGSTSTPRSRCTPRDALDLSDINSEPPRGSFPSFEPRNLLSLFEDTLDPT
Protocol: as §1

[3] = target: T3, ~100 representative kinases (Homo sapiens, UniProt Q99683); details: protein MAP3K5; average of three replicates
T3 construct: Recombinant protein kinase domains with a concentration of 2 μM
T3 sequence (Q99683 1-1374): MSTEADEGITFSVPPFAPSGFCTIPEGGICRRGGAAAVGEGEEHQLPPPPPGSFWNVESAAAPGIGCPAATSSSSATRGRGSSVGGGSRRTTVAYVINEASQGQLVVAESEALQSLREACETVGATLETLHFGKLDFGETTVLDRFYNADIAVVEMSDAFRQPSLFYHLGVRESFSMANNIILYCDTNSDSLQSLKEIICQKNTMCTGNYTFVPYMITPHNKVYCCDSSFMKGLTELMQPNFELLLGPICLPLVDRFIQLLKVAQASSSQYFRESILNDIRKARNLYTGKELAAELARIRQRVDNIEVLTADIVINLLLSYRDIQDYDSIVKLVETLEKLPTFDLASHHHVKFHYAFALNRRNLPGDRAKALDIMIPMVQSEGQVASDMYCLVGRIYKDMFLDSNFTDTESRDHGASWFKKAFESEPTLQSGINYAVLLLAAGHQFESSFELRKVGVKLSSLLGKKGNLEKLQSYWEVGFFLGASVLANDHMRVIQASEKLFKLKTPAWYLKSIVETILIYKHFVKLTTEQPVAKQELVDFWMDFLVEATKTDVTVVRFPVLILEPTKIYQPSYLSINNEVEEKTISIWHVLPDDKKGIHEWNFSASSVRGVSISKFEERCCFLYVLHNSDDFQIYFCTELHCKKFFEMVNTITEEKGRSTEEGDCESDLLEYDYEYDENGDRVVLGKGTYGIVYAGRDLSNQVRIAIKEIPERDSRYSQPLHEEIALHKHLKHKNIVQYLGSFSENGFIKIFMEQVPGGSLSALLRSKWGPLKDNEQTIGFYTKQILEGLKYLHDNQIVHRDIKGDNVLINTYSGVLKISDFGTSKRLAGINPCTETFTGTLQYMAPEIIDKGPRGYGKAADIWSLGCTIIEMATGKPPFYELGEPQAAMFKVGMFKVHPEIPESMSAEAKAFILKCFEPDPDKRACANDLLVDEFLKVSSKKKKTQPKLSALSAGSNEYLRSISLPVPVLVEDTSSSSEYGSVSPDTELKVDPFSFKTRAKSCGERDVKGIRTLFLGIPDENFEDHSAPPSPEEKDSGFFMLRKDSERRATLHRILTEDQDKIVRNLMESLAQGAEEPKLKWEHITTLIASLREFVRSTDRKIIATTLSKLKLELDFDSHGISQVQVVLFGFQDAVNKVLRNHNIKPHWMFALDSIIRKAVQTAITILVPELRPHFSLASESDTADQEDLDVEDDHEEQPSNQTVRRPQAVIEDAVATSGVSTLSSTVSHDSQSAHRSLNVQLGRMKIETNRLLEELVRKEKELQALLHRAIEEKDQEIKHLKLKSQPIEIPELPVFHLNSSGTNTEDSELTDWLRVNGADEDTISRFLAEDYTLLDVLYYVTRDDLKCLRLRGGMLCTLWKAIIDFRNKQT
Protocol: as §1

[4] = target: T4, ~100 representative kinases (Homo sapiens, UniProt Q16539)
T4 construct: Recombinant protein kinase domains with a concentration of 2 μM
Protocol: as §1

[5] = protein MAPK14, average of three replicates

T4 sequence (Q16539 whole entry, the tested form may be a part): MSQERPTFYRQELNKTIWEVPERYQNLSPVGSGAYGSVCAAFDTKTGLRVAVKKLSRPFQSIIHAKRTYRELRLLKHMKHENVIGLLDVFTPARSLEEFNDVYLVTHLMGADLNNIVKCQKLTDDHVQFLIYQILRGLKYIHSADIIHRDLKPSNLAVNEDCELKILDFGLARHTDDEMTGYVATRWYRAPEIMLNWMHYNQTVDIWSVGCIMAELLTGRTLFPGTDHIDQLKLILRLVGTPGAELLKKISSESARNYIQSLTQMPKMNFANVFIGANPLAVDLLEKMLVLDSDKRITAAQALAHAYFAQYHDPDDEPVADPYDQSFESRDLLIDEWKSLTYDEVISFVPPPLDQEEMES
T1 sequence (P53779 whole entry, the tested form may be a part): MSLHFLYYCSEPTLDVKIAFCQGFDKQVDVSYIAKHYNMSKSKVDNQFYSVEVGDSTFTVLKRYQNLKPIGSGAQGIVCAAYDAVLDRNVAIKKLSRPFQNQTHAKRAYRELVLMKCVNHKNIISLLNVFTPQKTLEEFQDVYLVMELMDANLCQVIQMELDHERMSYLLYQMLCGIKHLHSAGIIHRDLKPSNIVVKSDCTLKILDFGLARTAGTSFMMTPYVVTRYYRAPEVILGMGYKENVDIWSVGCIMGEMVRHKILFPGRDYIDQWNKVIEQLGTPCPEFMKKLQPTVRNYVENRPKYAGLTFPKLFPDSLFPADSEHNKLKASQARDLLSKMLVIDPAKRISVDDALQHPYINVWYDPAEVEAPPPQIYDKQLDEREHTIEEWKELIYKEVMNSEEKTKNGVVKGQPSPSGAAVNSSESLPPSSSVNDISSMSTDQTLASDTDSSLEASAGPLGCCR

Row | Compound | dTm [1] [K] | dTm [2] [K] | dTm [3] [K] | dTm [4, 5] [K] | dTm [4] [K]
1 | Cc1cc(NC(=O)C2(C(=O)Nc3cccc(-c4c[nH]c5ncnc(N6CCOCC6)c45)c3)CC2)ccc1F [Compound 20] | 0.56 | 0.44 | 4.77 | 1.97 | –
2 | CCNc1nc(Nc2cc(F)c(C(=O)N3CCOCC3)cc2OC)ncc1C(F)(F)F [GNE-7915] | 0.33 | -0.40 | 3.14 | 0.16 | –
3 | CC(C)(C)c1cccc(NC(=O)C2(C(=O)Nc3cccc(-c4c[nH]c5ncnc(N6CCOCC6)c45)c3)CC2)c1 [Compound 22] | 1.37 | -2.18 | 2.56 | 0.60 | –
4 | O=C(Nc1cccc(-c2c[nH]c3ncnc(N4CCOCC4)c23)c1)C1(C(=O)Nc2ccc(F)cc2F)CC1 [Compound 23] | -0.75 | -0.59 | 2.39 | -0.38 | –
5 | CC(=O)N1CCN(c2nc(Cl)nc3[nH]cc(-c4cccc(NC(=O)Nc5cc(C(C)(C)C)nn5-c5ccc(C)cc5)c4)c23)CC1 [Compound 31] | 0.82 | -0.30 | 1.23 | 3.92 | –
6 | O=C(Nc1cc(F)cc(Br)c1)C1(C(=O)Nc2cccc(-c3c[nH]c4ncnc(N5CCOCC5)c34)c2)CC1 [Compound 27] | 5.93 | -2.72 | 3.40 | 1.86 | –
7 | Cc1ccc(C(=O)Nc2ccc(CN3CCN(C)CC3)c(C(F)(F)F)c2)cc1C#Cc1cnc2[nH]ncc2c1 [GZD-824, reference compound] | 2.46 | 0.44 | 5.05 | – | 17.66
8 | O=C(Nc1ccccc1)C1(C(=O)Nc2cccc(-c3c[nH]c4ncnc(N5CCOCC5)c34)c2)CC1 [Compound 12] | 2.45 | 0.71 | 2.42 | 0.0252 | –
9 | CNC(=O)c1cc(Oc2ccc(NC(=O)Nc3cc(C(C)(C)C)nn3-c3ccc4ncccc4c3)c(F)c2)ccn1 [Rebastinib, reference compound] | 3.02 | 0.77 | 1.38 | 20.84 | –
10 | COc1cc2c(Oc3ccc(NC(=O)C4(C(=O)Nc5ccc(F)cc5)CC4)cc3F)ccnc2cc1OCCCN1CCOCC1 [Foretinib, reference compound] | 1.66 | 0.92 | 2.33 | – | 6.85
11 | Cc1ccc(NC(=O)C2(C(=O)Nc3cccc(-c4c[nH]c5ncnc(N6CCOCC6)c45)c3)CC2)cc1 [Compound 14] | -1.31 | 0.43 | 1.35 | 0.29 | –
12 | Cc1ccc(C(=O)Nc2ccc(CN3CCN(C)CC3)c(C(F)(F)F)c2)cc1C#Cc1cnc2cccnn12 [Ponatinib, reference compound] | – | -0.27 | – | 12.52 | –
13 | O=C(Nc1ccc(Cl)cc1)C1(C(=O)Nc2cccc(-c3c[nH]c4ncnc(N5CCOCC5)c34)c2)CC1 [Compound 13] | 3.61 | 0.52 | 4.01 | 1.55 | –
14 | Cc1ccc(-n2nc(C(C)(C)C)cc2NC(=O)Nc2cccc(-c3c[nH]c4ncnc(N5CCOCC5)c34)c2)cc1 [Compound 29] | 3.60 | -0.41 | 4.49 | 5.90 | –
15 | O=C(Nc1cccc(-c2c[nH]c3ncnc(N4CCOCC4)c23)c1)C1(C(=O)Nc2ccc(F)c(Br)c2)CC1 [Compound 19] | 4.40 | -0.61 | 5.22 | 3.30 | –
16 | O=C(Nc1cccc(-c2c[nH]c3ncnc(N4CCOCC4)c23)c1)C1(C(=O)Nc2ccc(F)c(Cl)c2)CC1 [Compound 18] | 3.57 | -1.54 | 3.67 | 1.31 | –
17 | COc1cc(S(C)(=O)=O)ccc1Nc1nc(N(C)C)c2c(Cl)c[nH]c2n1 [Compound 37] | 2.71 | -0.22 | 1.09 | -0.35 | –
18 | O=C(Nc1cccc(-c2c[nH]c3ncnc(N4CCOCC4)c23)c1)C1(C(=O)Nc2cc(Br)c(F)cc2F)CC1 [Compound 25] | 3.64 | -1.04 | 2.91 | 2.03 | –
19 | Cn1cc(-c2c[nH]c3ncnc(N4CCOCC4)c23)cc1C#N [PFE-360] | -1.02 | 0.19 | 15.45 | 0.53 | –
20 | O=C(Nc1cccc(-c2c[nH]c3ncnc(N4CCOCC4)c23)c1)c1cccn(-c2ccc(F)cc2)c1=O [Compound 4] | 7.48 | 0.10 | 4.59 | 1.17 | –
21 | Cc1ccc(C(=O)Nc2ccc(CN3CCN(C)CC3)c(C(F)(F)F)c2)cc1C#Cc1c[nH]c2ncnc(N3CCOCC3)c12 [Compound 1] | 4.55 | 0.41 | 6.86 | 5.43 | –
22 | O=C(Nc1ccc(F)cc1)C1(C(=O)Nc2cccc(-c3c[nH]c4ncnc(N5CCOCC5)c34)c2)CC1 [Compound 2] | -0.56 | -2.28 | 3.63 | 0.08 | –
23 | Cc1cc(NC(=O)C2(C(=O)Nc3ccc(F)cc3)CC2)cc(-c2c[nH]c3ncnc(N4CCOCC4)c23)c1 [Compound 6] | 2.20 | -0.19 | 4.24 | 1.61 | –
24 | O=C(Nc1cccc(-c2c[nH]c3ncnc(N4CCOCC4)c23)c1)C1(C(=O)Nc2ccc(F)c(Br)c2F)CC1 [Compound 26] | 5.85 | -0.69 | 3.03 | 2.01 | –
25 | Cc1cc(F)ccc1NC(=O)C1(C(=O)Nc2cccc(-c3c[nH]c4ncnc(N5CCOCC5)c34)c2)CC1 [Compound 24] | -0.11 | -0.26 | 1.15 | -0.59 | –
26 | CCSc1nc(NC)c2c(-c3cccc(NC(=O)Nc4cc(C(C)(C)C)nn4-c4ccc(C)cc4)c3)c[nH]c2n1 [Compound 32] | 3.75 | 0.22 | 0.73 | 5.12 | –
27 | O=C(Nc1cccc(-c2c[nH]c3ncnc(N4CCOCC4)c23)c1)C1(C(=O)Nc2cccc3c2CCC3)CC1 [Compound 11] | 5.69 | -0.88 | 3.33 | 1.60 | –
